Results as given in ChEMBL document CHEMBL1201862, “PubChem BioAssay data set” (2004).
Values belong to the molecule of their own block, whether it stands above or below them. The source made the active and inactive calls.

Assays:
INS1 = assay: beta cell apoptosis inhibitors, cytokine rescue, dose response, luminescence, retest (AID 449756); format: functional, cell-based; conditions: Rattus norvegicus;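 also: cell death triggered by IL-1 beta plus TNF-alpha plus IFN-gamma mixture; protective hits raise ATP signal compared with cytokine alone wells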
Protein Wnt-3a = Protein Wnt-3a (Mus musculus, UniProt P27467); assay: Wnt3a-driven reporter signaling inhibition, dose response, selectivity assay for Gli-SUFU antagonist project, Wnt-LIGHT cells, luminescence (AID 651570); format: functional; conditions: read-out: IC50_Mean;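 also: Wnt-LIGHT reporter cells stimulated with conditioned medium from Wnt3a-producing cells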
Protein Wnt-3a, sequence (P27467 whole entry): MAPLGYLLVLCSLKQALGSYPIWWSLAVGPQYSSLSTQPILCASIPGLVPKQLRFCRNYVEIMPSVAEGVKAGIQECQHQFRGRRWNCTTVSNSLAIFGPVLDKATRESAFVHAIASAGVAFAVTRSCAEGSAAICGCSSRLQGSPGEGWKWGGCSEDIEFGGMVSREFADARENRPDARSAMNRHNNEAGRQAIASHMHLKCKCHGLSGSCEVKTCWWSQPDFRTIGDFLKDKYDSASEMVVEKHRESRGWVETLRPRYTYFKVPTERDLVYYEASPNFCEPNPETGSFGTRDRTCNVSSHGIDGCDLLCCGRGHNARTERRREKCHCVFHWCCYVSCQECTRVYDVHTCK

[1] = biological target: Dual specificity protein phosphatase 3 (Homo sapiens, UniProt P51452); assay: VHR phosphatase inhibition, dose response, selectivity assay for STEP inhibitor project, biochemical (AID 602374); format: functional; conditions: read-out: IC50_Mean
Dual specificity protein phosphatase 3, sequence (P51452 whole entry): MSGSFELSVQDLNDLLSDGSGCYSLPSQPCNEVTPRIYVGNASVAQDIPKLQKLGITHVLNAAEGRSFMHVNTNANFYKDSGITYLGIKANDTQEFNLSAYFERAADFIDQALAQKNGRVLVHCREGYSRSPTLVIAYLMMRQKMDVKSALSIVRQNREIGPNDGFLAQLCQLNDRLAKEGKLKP

[2] = biological target: Tyrosine-protein phosphatase non-receptor type 5 (Homo sapiens, UniProt P54829); assay: STEP phosphatase inhibitors, confirmation, biochemical, fluorescence intensity, uHTS hits (AID 602372); format: functional; conditions: read-out: IC50_Mean
Tyrosine-protein phosphatase non-receptor type 5, sequence (P54829 whole entry): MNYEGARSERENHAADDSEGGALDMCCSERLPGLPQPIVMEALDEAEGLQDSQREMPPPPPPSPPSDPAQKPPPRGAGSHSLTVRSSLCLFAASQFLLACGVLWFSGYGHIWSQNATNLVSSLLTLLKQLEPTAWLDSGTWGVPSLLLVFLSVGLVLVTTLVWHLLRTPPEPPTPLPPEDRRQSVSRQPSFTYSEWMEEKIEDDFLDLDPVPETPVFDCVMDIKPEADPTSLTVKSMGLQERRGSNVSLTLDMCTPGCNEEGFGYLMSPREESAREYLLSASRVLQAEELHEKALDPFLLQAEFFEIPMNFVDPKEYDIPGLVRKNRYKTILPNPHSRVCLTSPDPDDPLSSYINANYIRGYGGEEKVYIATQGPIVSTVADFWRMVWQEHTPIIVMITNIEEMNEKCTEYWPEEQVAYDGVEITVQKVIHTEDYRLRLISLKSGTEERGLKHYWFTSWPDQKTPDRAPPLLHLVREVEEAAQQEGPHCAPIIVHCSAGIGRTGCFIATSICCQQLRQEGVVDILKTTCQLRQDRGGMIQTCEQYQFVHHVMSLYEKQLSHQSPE

[3] = biological target: Tyrosine-protein phosphatase non-receptor type 11 (Homo sapiens, UniProt Q06124); assay: SHP2 phosphatase inhibition, dose response, selectivity assay for STEP inhibitor project, biochemical (AID 602367); format: functional; conditions: read-out: IC50_Mean
[4] = biological target: T1, Mitochondrial peptide methionine sulfoxide reductase (Bos taurus, UniProt P54149); assay: Absorbance-based biochemical high throughput dose response assay for activators of Methionine sulfoxide reductase A (MsrA).; format: functional
T1 sequence (P54149 whole entry): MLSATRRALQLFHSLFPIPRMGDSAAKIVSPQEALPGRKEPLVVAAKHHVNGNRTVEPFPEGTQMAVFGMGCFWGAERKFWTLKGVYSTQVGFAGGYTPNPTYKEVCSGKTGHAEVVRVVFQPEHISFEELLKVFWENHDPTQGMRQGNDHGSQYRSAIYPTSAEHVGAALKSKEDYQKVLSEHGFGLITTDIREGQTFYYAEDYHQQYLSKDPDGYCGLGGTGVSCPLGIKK

[5] = biological target: Hepatocyte nuclear factor 4-alpha (Homo sapiens, UniProt P41235); format: functional, cell-based;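 also: biochemical luminescence-based dose-response counterscreen measuring inhibition of HNF4 dimerization, run alongside a screen for blockers of ABHD5–perilipin-5 interaction; split luciferase complementation of HNF4 fusion proteins in cell lysate measuring dimerization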
Hepatocyte nuclear factor 4-alpha, sequence (P41235 whole entry, the tested form may be a part): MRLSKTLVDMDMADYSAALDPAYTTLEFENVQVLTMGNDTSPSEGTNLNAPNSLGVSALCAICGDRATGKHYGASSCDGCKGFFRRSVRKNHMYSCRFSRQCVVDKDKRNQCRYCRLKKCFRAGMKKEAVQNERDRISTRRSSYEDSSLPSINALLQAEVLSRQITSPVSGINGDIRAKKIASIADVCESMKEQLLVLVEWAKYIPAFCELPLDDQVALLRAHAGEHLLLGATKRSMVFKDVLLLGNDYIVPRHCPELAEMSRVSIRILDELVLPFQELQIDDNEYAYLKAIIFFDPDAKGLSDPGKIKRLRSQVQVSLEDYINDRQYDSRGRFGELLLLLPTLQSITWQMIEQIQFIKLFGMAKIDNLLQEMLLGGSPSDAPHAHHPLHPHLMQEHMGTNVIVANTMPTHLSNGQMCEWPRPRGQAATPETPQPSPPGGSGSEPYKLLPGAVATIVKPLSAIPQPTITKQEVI

Structure (SMILES): CC(C)C(=O)NC(=S)/C=C1/N(C)c2ccccc2C1(C)C
AC50 (INS1): 7.53 µM (active)
IC50 (Protein Wnt-3a): 9.3 µM (active)

IC50 [1]: 14.1 µM (active)
IC50 [2]: 35.8 µM (inactive)
IC50 [3]: 33.4 µM (inactive)
Structure (SMILES): O=C(N/N=C/c1coc2ccccc2c1=O)c1cc2ccccc2o1

EC50 [4]: > 104 µM (inactive)
Structure (SMILES): COc1ccc(OC)c(/C=N/N(CCC#N)C2=NS(=O)(=O)c3ccccc32)c1

IC50 [5]: 3.07 µM (active)
Structure (SMILES): O=C(NCc1ccccc1)C(c1cc2ccccc2o1)n1c(=O)c(-c2ccco2)nc2ccccc21 (configuration not stated)
